Organism: Rattus norvegicus
Assay: Open TG-GATES - Regimen: Single
Type: toxicity, organism-based, Sprague-Dawley
Parameters: regimen Single, gender Male, age 6 weeks
Settings: in vivo, po, 30 mg/kg, route gavage, dose level Middle; for Bas / Eos / Hb / Ht / Lym / MCH / MCHC / MCV / Mono / Neu / Plat / RBC / Ret / WBC: tissue Blood; for KIDNEY_L / KIDNEY_R / KIDNEY_TOTAL: tissue Kidney; for LIVER: tissue Liver; for A/G / ALP / ALT / AST / BUN / CRE / Ca / Cl / DBIL / GLC / IP / K / LDH / Na / PL / RALB / TBIL / TC / TG / TP / gamma-GTP: tissue Plasma

Q: How did the TERMINAL_BW (3 h) turn out when `Cc1ccc2cc3c(ccc4ccccc43)c3c2c1CC3` [3-METHYLCHOLANTHRENE] was run?
A: 211.6 g

Q: And the Bas (3 h)?
A: 0%

Q: And the Eos (3 h)?
A: 0.8%

Q: What about the Hb (3 h) of the same compound?
A: 12.5 g/dL

Q: What about the Ht (3 h) of the same compound?
A: 38.3%

Q: And the Lym (3 h)?
A: 73.4%

Q: What about the MCH (3 h) of the same compound?
A: 20.6 pg

Q: And the MCHC (3 h)?
A: 32.6%

Q: What about the MCV (3 h) of the same compound?
A: 63.1 fL

Q: And the Mono (3 h)?
A: 3.6%

Q: And the Neu (3 h)?
A: 21.4%

Q: And the Plat (3 h)?
A: 120.7 x10_4/uL

Q: What about the RBC (3 h) of the same compound?
A: 607.4 x10_4/ul

Q: And the Ret (3 h)?
A: 10.1%

Q: What about the WBC (3 h) of the same compound?
A: 93.9 x10_2/uL

Q: What about the KIDNEY_L (3 h) of the same compound?
A: 0.9 g

Q: What about the KIDNEY_R (3 h) of the same compound?
A: 0.9 g

Q: What about the KIDNEY_TOTAL (3 h) of the same compound?
A: 1.8 g

Q: What about the LIVER (3 h) of the same compound?
A: 9.5 g

Q: What about the A/G (3 h) of the same compound?
A: 1

Q: And the ALP (3 h)?
A: 1634.6 IU/L

Q: And the ALT (3 h)?
A: 41.6 IU/L

Q: And the AST (3 h)?
A: 76 IU/L

Q: What about the BUN (3 h) of the same compound?
A: 12.6 mg/dL

Q: What about the CRE (3 h) of the same compound?
A: 0.1 mg/dL

Q: And the Ca (3 h)?
A: 10.9 mg/dL

Q: And the Cl (3 h)?
A: 103.3 meq/L

Q: And the DBIL (3 h)?
A: 0 mg/dL

Q: And the GLC (3 h)?
A: 177.4 mg/dL

Q: And the IP (3 h)?
A: 8.2 mg/dL

Q: And the K (3 h)?
A: 4.2 meq/L

Q: What about the LDH (3 h) of the same compound?
A: 224.4 IU/L

Q: What about the Na (3 h) of the same compound?
A: 139.9 meq/L

Q: What about the PL (3 h) of the same compound?
A: 185.8 mg/dL

Q: What about the RALB (3 h) of the same compound?
A: 2.9 g/dL

Q: What about the TBIL (3 h) of the same compound?
A: 0.008 mg/dL

Q: What about the TC (3 h) of the same compound?
A: 87.2 mg/dL

Q: And the TG (3 h)?
A: 201.5 mg/dL

Q: And the TP (3 h)?
A: 5.7 g/dL

Q: And the gamma-GTP (3 h)?
A: 0.6 IU/L

Q: And the TERMINAL_BW (6 h)?
A: 206.2 g

Q: And the Bas (6 h)?
A: 0%

Q: And the Eos (6 h)?
A: 0%

Q: And the Hb (6 h)?
A: 12.9 g/dL

Q: And the Ht (6 h)?
A: 39.5%

Q: What about the Lym (6 h) of the same compound?
A: 77.6%

Q: What about the MCH (6 h) of the same compound?
A: 20.7 pg

Q: And the MCHC (6 h)?
A: 32.7%

Q: What about the MCV (6 h) of the same compound?
A: 63.5 fL

Q: What about the Mono (6 h) of the same compound?
A: 3.6%

Q: And the Neu (6 h)?
A: 17.2%

Q: What about the Plat (6 h) of the same compound?
A: 124.3 x10_4/uL

Q: What about the RBC (6 h) of the same compound?
A: 622.8 x10_4/ul

Q: And the Ret (6 h)?
A: 9%

Q: What about the WBC (6 h) of the same compound?
A: 124.3 x10_2/uL

Q: What about the KIDNEY_L (6 h) of the same compound?
A: 0.9 g

Q: What about the KIDNEY_R (6 h) of the same compound?
A: 0.9 g

Q: And the KIDNEY_TOTAL (6 h)?
A: 1.8 g

Q: And the LIVER (6 h)?
A: 9 g

Q: And the A/G (6 h)?
A: 1

Q: What about the ALP (6 h) of the same compound?
A: 1407.6 IU/L

Q: What about the ALT (6 h) of the same compound?
A: 35 IU/L

Q: And the AST (6 h)?
A: 66 IU/L

Q: And the BUN (6 h)?
A: 9 mg/dL

Q: And the CRE (6 h)?
A: 0.1 mg/dL

Q: What about the Ca (6 h) of the same compound?
A: 10.7 mg/dL

Q: What about the Cl (6 h) of the same compound?
A: 104.4 meq/L

Q: What about the DBIL (6 h) of the same compound?
A: 0 mg/dL

Q: What about the GLC (6 h) of the same compound?
A: 169 mg/dL

Q: And the IP (6 h)?
A: 8.9 mg/dL

Q: What about the K (6 h) of the same compound?
A: 4.3 meq/L

Q: And the LDH (6 h)?
A: 174.6 IU/L

Q: And the Na (6 h)?
A: 140.3 meq/L

Q: What about the PL (6 h) of the same compound?
A: 158.2 mg/dL

Q: What about the RALB (6 h) of the same compound?
A: 2.9 g/dL

Q: What about the TBIL (6 h) of the same compound?
A: 0.008 mg/dL

Q: What about the TC (6 h) of the same compound?
A: 80.8 mg/dL

Q: What about the TG (6 h) of the same compound?
A: 101.9 mg/dL

Q: And the TP (6 h)?
A: 5.7 g/dL

Q: What about the gamma-GTP (6 h) of the same compound?
A: 0.7 IU/L

Q: What about the TERMINAL_BW (9 h) of the same compound?
A: 206.5 g

Q: What about the Bas (9 h) of the same compound?
A: 0%

Q: And the Eos (9 h)?
A: 0.6%

Q: And the Hb (9 h)?
A: 12.7 g/dL

Q: And the Ht (9 h)?
A: 39.4%

Q: What about the Lym (9 h) of the same compound?
A: 73.2%

Q: And the MCH (9 h)?
A: 20.7 pg

Q: What about the MCHC (9 h) of the same compound?
A: 32.2%

Q: And the MCV (9 h)?
A: 64.3 fL

Q: And the Mono (9 h)?
A: 3.6%

Q: What about the Neu (9 h) of the same compound?
A: 21.6%

Q: And the Plat (9 h)?
A: 127.5 x10_4/uL

Q: And the RBC (9 h)?
A: 612.8 x10_4/ul

Q: And the Ret (9 h)?
A: 9.1%

Q: What about the WBC (9 h) of the same compound?
A: 119.4 x10_2/uL

Q: And the KIDNEY_L (9 h)?
A: 0.9 g

Q: What about the KIDNEY_R (9 h) of the same compound?
A: 0.9 g

Q: And the KIDNEY_TOTAL (9 h)?
A: 1.8 g

Q: And the LIVER (9 h)?
A: 8.6 g

Q: What about the A/G (9 h) of the same compound?
A: 1

Q: And the ALP (9 h)?
A: 1625.8 IU/L

Q: And the ALT (9 h)?
A: 34.6 IU/L

Q: And the AST (9 h)?
A: 64.2 IU/L

Q: What about the BUN (9 h) of the same compound?
A: 10.4 mg/dL

Q: And the CRE (9 h)?
A: 0.1 mg/dL

Q: What about the Ca (9 h) of the same compound?
A: 10.5 mg/dL

Q: And the Cl (9 h)?
A: 103.9 meq/L

Q: And the DBIL (9 h)?
A: 0.002 mg/dL

Q: What about the GLC (9 h) of the same compound?
A: 178.4 mg/dL

Q: And the IP (9 h)?
A: 10.2 mg/dL

Q: And the K (9 h)?
A: 4.5 meq/L

Q: What about the LDH (9 h) of the same compound?
A: 153.6 IU/L

Q: And the Na (9 h)?
A: 141.7 meq/L

Q: And the PL (9 h)?
A: 160 mg/dL

Q: And the RALB (9 h)?
A: 2.8 g/dL

Q: And the TBIL (9 h)?
A: 0.004 mg/dL

Q: And the TC (9 h)?
A: 84 mg/dL

Q: And the TG (9 h)?
A: 109.2 mg/dL

Q: And the TP (9 h)?
A: 5.6 g/dL

Q: What about the gamma-GTP (9 h) of the same compound?
A: 0.8 IU/L

Q: And the TERMINAL_BW (24 h)?
A: 216.2 g

Q: And the Bas (24 h)?
A: 0%

Q: What about the Eos (24 h) of the same compound?
A: 0.2%

Q: What about the Hb (24 h) of the same compound?
A: 12.6 g/dL

Q: What about the Ht (24 h) of the same compound?
A: 38.1%

Q: What about the Lym (24 h) of the same compound?
A: 80.6%

Q: And the MCH (24 h)?
A: 20.6 pg

Q: What about the MCHC (24 h) of the same compound?
A: 32.9%

Q: What about the MCV (24 h) of the same compound?
A: 62.6 fL

Q: What about the Mono (24 h) of the same compound?
A: 3.8%

Q: What about the Neu (24 h) of the same compound?
A: 14.2%

Q: What about the Plat (24 h) of the same compound?
A: 127.8 x10_4/uL

Q: What about the RBC (24 h) of the same compound?
A: 608 x10_4/ul

Q: And the Ret (24 h)?
A: 8%

Q: What about the WBC (24 h) of the same compound?
A: 107.4 x10_2/uL

Q: What about the KIDNEY_L (24 h) of the same compound?
A: 0.9 g

Q: And the KIDNEY_R (24 h)?
A: 0.9 g

Q: And the KIDNEY_TOTAL (24 h)?
A: 1.9 g

Q: What about the LIVER (24 h) of the same compound?
A: 11 g

Q: And the A/G (24 h)?
A: 1

Q: And the ALP (24 h)?
A: 2072.4 IU/L

Q: What about the ALT (24 h) of the same compound?
A: 41.2 IU/L

Q: What about the AST (24 h) of the same compound?
A: 77.2 IU/L

Q: And the BUN (24 h)?
A: 13.7 mg/dL

Q: And the CRE (24 h)?
A: 0.1 mg/dL

Q: What about the Ca (24 h) of the same compound?
A: 10.9 mg/dL

Q: And the Cl (24 h)?
A: 103.4 meq/L

Q: What about the DBIL (24 h) of the same compound?
A: 0 mg/dL

Q: What about the GLC (24 h) of the same compound?
A: 173.8 mg/dL

Q: And the IP (24 h)?
A: 7.1 mg/dL

Q: What about the K (24 h) of the same compound?
A: 4.7 meq/L

Q: And the LDH (24 h)?
A: 281.4 IU/L

Q: What about the Na (24 h) of the same compound?
A: 141.5 meq/L

Q: What about the PL (24 h) of the same compound?
A: 165.2 mg/dL

Q: And the RALB (24 h)?
A: 2.8 g/dL

Q: What about the TBIL (24 h) of the same compound?
A: 0.004 mg/dL

Q: What about the TC (24 h) of the same compound?
A: 82.6 mg/dL

Q: And the TG (24 h)?
A: 152.7 mg/dL

Q: What about the TP (24 h) of the same compound?
A: 5.5 g/dL

Q: And the gamma-GTP (24 h)?
A: 0.9 IU/L

— ChEMBL document CHEMBL3885861, “Open TG-GATES”
